# Where two headings read alike, the source gives them in different places.
# How the values were obtained:
# [1] = tested on: BP3 human B-cell lymphoma cell line; test: Annexin V-FITC and propidium iodide assay; format: cell-based; conditions: for EC50: Homo sapiens, B-cell, Table 3, Annexin V-FITC and propidium iodide assay, read-out: EC50 BP3
# BCL-XL [2] = target: T1, BCL-XL (Homo sapiens, UniProt Q07817); test: 1D 1H-NMR binding assay; set-up: key to 1D-^1H NMR: +++, Very Active; ++, Active; +, Mild; −, Weak; conditions: for 1D-^1H NMR: BCL-XL 25 μM, compound 200 μM; for 1D ^1H-NMR Binding Assay (BCL-XL): Table 9
# Procedure: By observing the aliphatic region of the spectra, binding could be readily detected due to chemical shift changes in active site methyl groups of Ile, Leu, Thr, Val or Ala (region between −0.8 and 0.3 ppm). All experiments were performed with a 600 MHz spectrometer Bruker Avance 600 equipped with four rf channels and z-axis pulse-field gradients.
# Target sequence in this assay (Q07817 whole entry): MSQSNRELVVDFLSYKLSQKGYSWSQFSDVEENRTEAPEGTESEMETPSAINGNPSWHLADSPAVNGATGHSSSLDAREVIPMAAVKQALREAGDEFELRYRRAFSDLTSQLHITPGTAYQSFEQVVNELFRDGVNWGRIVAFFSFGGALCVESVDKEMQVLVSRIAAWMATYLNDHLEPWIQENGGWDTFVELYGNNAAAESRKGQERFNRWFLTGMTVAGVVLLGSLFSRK
# Bcl-2 = Bcl-2 (Homo sapiens, UniProt P10415); test: Competitive fluorescence polarization assay (FPA), Bim BH3 peptide; format: binding
# Mcl-1 = Mcl-1 (Homo sapiens, UniProt Q07820); test: as above; format: binding
# BCL-XL [3] = target: T1, BCL-XL; test: Competitive fluorescence polarization assay (FPA), Bak BH3 peptide; format: binding; set-up: 100 nM GST-BCL-XL ΔTM protein
# Procedure: For competitive binding assays, 100 nM GST-BCL-XL ΔTM protein was preincubated with the tested compound at varying concentrations in 47.5 μL PBS (pH=7.4) in 96-well black plates at room temperature for 10 min, then 2.5 μL of 100 nM FITC-labeled Bak BH3 peptide was added to produce a final volume of 50 μL. The wild-type and mutant Bak BH3 peptides were included in each assay plate as positive and negative controls, respectively. […] IC50 was determined by fitting the experimental data to a sigmoidal dose-response nonlinear regression model (SigmaPlot 10.0.1, Systat Software, Inc., San Jose, Calif., USA). Data reported are mean of three independent experiments±standard error (SE). […] Fluorescence polarization was measured after 10 min.
# Target sequence in this assay (Q07817 1-209 limits assumed): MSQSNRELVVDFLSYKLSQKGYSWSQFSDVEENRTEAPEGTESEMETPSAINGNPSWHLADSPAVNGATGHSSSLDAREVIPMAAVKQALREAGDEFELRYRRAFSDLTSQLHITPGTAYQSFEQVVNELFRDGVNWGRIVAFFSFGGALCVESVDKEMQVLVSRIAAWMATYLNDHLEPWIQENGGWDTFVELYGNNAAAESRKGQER
# Plasma stability = format: in vitro ADME, rat; conditions: Table 6; rat plasma, 1 h
# Procedure: Plasma Stability. A 20 μL aliquot of a 10 mM solution in DMSO of the test compound was added to 2.0 mL of heparinized rat plasma (Lampire, P1-150N) to obtain a 100 μM final solution. The mixture was incubated for 1 h at 37.5° C. Aliquots of 100 μL were taken (0, 30 min, 1 h) and diluted with 200 μL of MeOH containing internal standard.
# [4] = Liver microsomal stability; format: in vitro ADME, rat; conditions: Table 6; rat liver microsomes, 1 h
# Source text: Liver Microsomal Stability.
# [5] = tested on: H460 human lung cell line; test: Cell viability, ATP-LITE assay; format: cell-based; conditions: for EC50: Homo sapiens
# Procedure: (§1) The activity of the compounds against human cancer cell lines (PC3ML, H460, H1299, RS11846) were assessed by using the ATP-LITE assay (PerkinElmer). All cells were seeded in either F12 or RPMI1640 medium with 5 mM L-glutamine supplemented with 5% fetal bovine serum (Mediatech Inc.), penicillin and streptomycin (Omega). For maintenance, cells were cultured in 5% FBS. Cells plated into 96 well plates at varying initial densities depending on doubling time. H460 and H1299 plated at 2000 cells/well, A549 and PC3 at 3000 cells/well, and RS118456S at 10,000 cells/well. Compounds were diluted to final concentrations with 0.1% DMSO. Prior to dispensing compounds onto cells, fresh 5% media was placed into wells. Administration of compounds occurred 24 hours after seeding into the fresh media. Cell viability was evaluated using ATP-LITE reagent (PerkinElmer) after 72 hours of treatment. Data were normalized to the DMSO control-treated cells using Prism version 5.01 (Graphpad Software).
# [6] = tested on: human lymphoma RS11846 cell line; test: Apoptosis, Annexin V-FITC and propidium iodide assay; format: cell-based; conditions: for EC50: Homo sapiens
# H1299 cell line = test: Cell viability, ATP-LITE assay; format: cell-based, human; conditions: Homo sapiens
# Procedure: as §1
# PC3ML cells = test: Cell viability, ATP-LITE assay; format: cell-based, human; conditions: Homo sapiens, PC3-ML
# Procedure: as §1
# B6Bcl-2 transgenic mice = tested on: B6Bcl-2 transgenic mice
# Procedure: Transgenic mice expressing BCL-2 have been described as the B6 line. The BCL-2 transgene res a minigene version of a t(14;18) translocation in which the human BCL-2 gene is fused with the immunoglobulin heavy-chain (IgH) locus and associated IgH enhancer. The transgene was propagated on the Balb/c background.
# After 24 hours, B6BCL2 mice were sacrificed by intraperitoneal injection of lethal dose of Avertin. Spleen was removed and weighed. […] Spleen tissue was fixed in z-FIX for 3 days and rinsed in PBS, and saved for histological analysis of spleen (H&E staining and TUNEL assay).
# BCL-XL [7] = target: T1, BCL-XL; test: Isothermal titration calorimetry (ITC); format: binding; conditions: vs Apogossypol
# Procedure: Titrations were performed using a VP-ITC or ITC200 calorimeter from Microcal (Northampton, Mass.). BCL-XL was used at concentrations between 25 and 100 μM in 20 mM sodium phosphate buffer (pH 7.4) and 5-10% DMSO. Titrants were used at concentrations 10-15 fold of that of the protein in the same buffer. Titrations were carried out at 25° C. Data were analyzed using Microcal Origin software provided by the ITC manufacturer (Microcal, Northampton, Mass.).
# Target sequence in this assay (Q07817 whole entry): as the sequence (Q07817 whole entry) above
# RS11846 cell line = test: Cell viability, ATP-LITE assay; format: cell-based; conditions: Homo sapiens, read-out: RS11846 EC50 (ATP-LITE assay)
# Procedure: as §1
# [8] = NCI-H460, heading: EC50 H460, Table 3, ATP-LITE assay, read-out: EC50 H460
# [9] = Table 3, Annexin V-FITC and propidium iodide assay, heading: EC50 RS11846, read-out: EC50 RS11846
# [10] = NCI-H1299, read-out: H1299 EC50
# [11] = read-out: RS11846 EC50 (Annexin V- and propidium iodide assay), Table 9
# Bcl-2, sequence (P10415 whole entry): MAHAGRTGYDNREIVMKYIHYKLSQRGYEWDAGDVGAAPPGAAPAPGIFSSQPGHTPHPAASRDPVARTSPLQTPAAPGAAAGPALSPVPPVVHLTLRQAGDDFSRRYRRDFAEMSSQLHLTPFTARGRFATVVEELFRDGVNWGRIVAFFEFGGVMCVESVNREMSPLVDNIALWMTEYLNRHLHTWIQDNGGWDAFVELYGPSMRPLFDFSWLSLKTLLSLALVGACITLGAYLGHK
# Mcl-1, sequence (Q07820 whole entry): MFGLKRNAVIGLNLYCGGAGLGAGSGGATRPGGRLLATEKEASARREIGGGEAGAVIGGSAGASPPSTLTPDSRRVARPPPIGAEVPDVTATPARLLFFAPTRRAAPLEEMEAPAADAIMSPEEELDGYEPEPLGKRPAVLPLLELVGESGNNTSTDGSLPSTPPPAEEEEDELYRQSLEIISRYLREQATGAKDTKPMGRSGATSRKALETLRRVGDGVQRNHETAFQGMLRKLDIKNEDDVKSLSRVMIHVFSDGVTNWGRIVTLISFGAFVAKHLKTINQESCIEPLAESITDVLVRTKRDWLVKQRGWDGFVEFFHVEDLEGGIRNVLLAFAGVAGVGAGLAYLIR
smiles,measurement,setting,value
"CN(C)CC[C@H](CSc1ccccc1)Nc1ccc(S(=O)(=O)NC(=O)c2ccc(N3CCN(Cc4ccccc4-c4ccc(Cl)cc4)CC3)cc2)cc1[N+](=O)[O-] [ABT-737, reference compound]",cell activity against BP3 cell lines,[1],no cell activity
"Cc1cc(C)c(CNC(=O)c2c(O)c(O)cc3c(O)c(-c4c(C)cc5c(C(=O)NCc6c(C)cc(C)cc6C)c(O)c(O)cc5c4O)c(C)cc23)c(C)c1 [Compound 8j, 1,1′,6,6′,7,7′-hexahydroxy-3,3′-dimethyl-N^5,N^5′-bis(2,4,6-trimethylbenzyl)-2,2′-binaphthyl-5,5′-dicarboxamide]",1D-^1H NMR,BCL-XL [2]; Table 3,++
same,IC50,Bcl-2,0.7 µM
same,IC50,Mcl-1,1.1 µM
same,IC50,BCL-XL [3]; read-out: IC50 FPA Bcl-XL,0.8 µM
"Cc1cc2c(C(=O)NCCc3ccccc3)c(O)c(O)cc2c(O)c1-c1c(C)cc2c(C(=O)NCCc3ccccc3)c(O)c(O)cc2c1O [Compound 8n, 1,1′,6,6′,7,7′-hexahydroxy-3,3′-dimethyl-N^5,N^5′-diphenethyl-2,2′-binaphthyl-5,5′-dicarboxamide]",1D-^1H NMR,BCL-XL [2]; Table 3,++
same,IC50,Bcl-2,0.15 µM
same,IC50,Mcl-1,0.3 µM
same,Plasma stability (T = 1 h),Plasma stability,63%
same,Microsomal Stability (T = 1 h),[4],60%
same,IC50,BCL-XL [3]; read-out: IC50 FPA Bcl-XL,0.8 µM
"Cc1cc2c(C(=O)NCCc3ccc(Cl)cc3)c(O)c(O)cc2c(O)c1-c1c(C)cc2c(C(=O)NCCc3ccc(Cl)cc3)c(O)c(O)cc2c1O [Compound 8t, N^5,N^5′-bis(4-chlorophenethyl)-1,1′,6,6′,7,7′-hexahydroxy-3,3′-dimethyl-2,2′-binaphthyl-5,5′-dicarboxamide]",1D-^1H NMR,BCL-XL [2]; Table 3,++
same,EC50,[5]; [8],1.3 µM
same,EC50,[6]; [9],5.1 µM
same,EC50,[1],0.7 µM
"Cc1cc2c(CC3CCCC3)c(O)c(O)cc2c(O)c1-c1c(C)cc2c(CC3CCCC3)c(O)c(O)cc2c1O [Compound 12c, 5,5′-bis(cyclopentylmethyl)-3,3′-dimethyl-2,2′-binaphthyl-1,1′,6,6′,7,7′-hexaol]",1D-^1H NMR,BCL-XL [2]; Table 4,+
same,EC50,"H1299 cell line; NCI-H1299, ATP-LITE assay, read-out: EC50 H1299",10.9 µM
same,EC50,"PC3ML cells; ATP-LITE assay, read-out: EC50 PC3ML",11.2 µM
same,EC50,"[5]; NCI-H460, ATP-LITE assay, read-out: EC50 H460",1.8 µM
same,EC50,"[6]; Annexin V-FITC and propidium iodide assay, read-out: EC50 RS11846",4.5 µM
same,Plasma stability (T = 1 h),Plasma stability,81%
same,Microsomal Stability (T = 1 h),[4],75%
same,signs of toxicity,B6Bcl-2 transgenic mice; 72 μmol/kg and even 120 μmol/kg,no significant signs of toxicity
same,Tox,"B6Bcl-2 transgenic mice; Bcl-2 transgenic mouse, single ip injection 72 μmol/kg",1+
"Cc1cc2c(C(=O)O)c(O)c(O)cc2c(O)c1-c1c(C)cc2c(C(=O)O)c(O)c(O)cc2c1O [Compound 14, 1,1′,6,6′,7,7′-hexahydroxy-3,3′-dimethyl-2,2′-binaphthyl-5,5′-dicarboxylic acid]",1D-^1H NMR,BCL-XL [2]; Table 3,−
same,EC50,"H1299 cell line; NCI-H1299, heading: EC50 H1299, Table 3, ATP-LITE assay, read-out: EC50 H1299",> 30 µM
same,EC50,"PC3ML cells; Table 3, ATP-LITE assay, heading: EC50 PC3ML, read-out: EC50 PC3ML",> 30 µM
same,EC50,[5]; [8],> 30 µM
same,EC50,[6]; [9],> 30 µM
same,induction of apoptosis of the RS11846 cell line,[6]; in words,weak or no apoptosis
same,EC50,[1]; heading: EC50 BP3,> 30 µM
"Cc1ccc(CC(=O)c2c(O)c(O)cc3c(O)c(-c4c(C)cc5c(C(=O)Cc6ccc(C)cc6)c(O)c(O)cc5c4O)c(C)cc23)cc1 [Compound XII, 1,1′-(1,1′,6,6′,7,7′-hexahydroxy-3,3′-dimethyl-2,2′-binaphthyl-5,5′-diyl)bis(2-p-tolylethanone)]",1D ^1H-NMR Binding Assay (BCL-XL),BCL-XL [2],++
same,"times more potent than Apogossypol, ITC Bcl-XL",BCL-XL [7],40
same,EC50,H1299 cell line; [10],1.7 µM
same,EC50,"PC3ML cells; read-out: PC3ML EC50, Table 9",1.9 to 4.6 µM
same,EC50,"[5]; NCI-H460, read-out: H460 EC50",0.82 µM
same,"times more potent than Apogossypol, H460",[5]; vs Apogossypol,4-5
same,EC50,RS11846 cell line,2.2 µM
same,EC50,[6]; [11],3 to 5.5 µM
"Cc1cc2c(C(=O)Cc3cccc(Br)c3)c(O)c(O)cc2c(O)c1-c1c(C)cc2c(C(=O)Cc3cccc(Br)c3)c(O)c(O)cc2c1O [Compound XIII, 1,1′-(1,1′,6,6′,7,7′-hexahydroxy-3,3′-dimethyl-2,2′-binaphthyl-5,5′-diyl)bis(2-(3-bromophenyl)ethanone)]",1D ^1H-NMR Binding Assay (BCL-XL),BCL-XL [2],++
same,EC50,H1299 cell line; [10],2.6 µM
same,EC50,"PC3ML cells; read-out: PC3ML EC50, Table 9",3.1 µM
same,EC50,"[5]; NCI-H460, read-out: H460 EC50",2.7 µM
same,EC50,RS11846 cell line,8.4 µM
same,EC50,[6]; [11],5.3 µM
same,IC50,"BCL-XL [3]; FPA IC50 (BCL-XL), Table 9",1.31 µM
"Cc1cc2c(C(=O)Cc3ccc(OC(F)(F)F)cc3)c(O)c(O)cc2c(O)c1-c1c(C)cc2c(C(=O)Cc3ccc(OC(F)(F)F)cc3)c(O)c(O)cc2c1O [Compound XIV, 1,1′-(1,1′,6,6′,7,7′-hexahydroxy-3,3′-dimethyl-2,2′-binaphthyl-5,5′-diyl)bis(2-(4-(trifluoromethoxy)phenyl)ethanone)]",1D ^1H-NMR Binding Assay (BCL-XL),BCL-XL [2],++
same,EC50,H1299 cell line; [10],3.9 µM
same,EC50,"PC3ML cells; read-out: PC3ML EC50, Table 9",1.9 µM
same,EC50,"[5]; NCI-H460, read-out: H460 EC50",3.3 µM
same,EC50,RS11846 cell line,1.8 µM
same,EC50,[6]; [11],6.2 µM
same,IC50,"BCL-XL [3]; FPA IC50 (BCL-XL), Table 9",1.3 µM
"Cc1cc2c(C(=O)CCc3ccc(F)cc3)c(O)c(O)cc2c(O)c1-c1c(C)cc2c(C(=O)CCc3ccc(F)cc3)c(O)c(O)cc2c1O [Compound XVI, 1,1′-(1,1′,6,6′,7,7′-hexahydroxy-3,3′-dimethyl-2,2′-binaphthyl-5,5′-diyl)bis(3-(4-fluorophenyl)propan-1-one)]",1D ^1H-NMR Binding Assay (BCL-XL),BCL-XL [2],++
same,EC50,"H1299 cell line; NCI-H1299, Table 9, read-out: H1299 EC50",2.2 µM
same,EC50,"PC3ML cells; Table 9, read-out: PC3ML EC50",2.8 µM
same,EC50,"[5]; NCI-H460, Table 9, read-out: H460 EC50",1.5 µM
same,EC50,RS11846 cell line; Table 9,2.3 µM
same,EC50,"[6]; Table 9, read-out: RS11846 EC50 (Annexin V- and propidium iodide assay)",3.1 µM
same,IC50,"BCL-XL [3]; Table 9, read-out: FPA IC50 (BCL-XL)",0.14 µM

# Source: patent publication US8039668B2, “Naphthalene-based inhibitors of anti-apoptotic proteins” (Burnham Institute for Medical Research, priority 2008, dated 2011)
